# Like-named read-outs stand apart in the source and are kept apart here.
# Key:
# [1] = tested on: VSV-G pseudotyped HIV-1-Luc in wild type HEK293T cells; test: microbe, parasite or virus in culture; format: cell-based; conditions: Human immunodeficiency virus 1, HEK-293T
# [2] = tested on: VSV-G pseudotyped HIV-1-Luc in PSIP1 KO HEK293T cells; test: microbe, parasite or virus in culture; format: cell-based; conditions: for EC50: Human immunodeficiency virus 1, HEK-293T
# virion-associated RT = test: Virion-associated Reverse Transcriptase (RT) assay; format: biochemical, HIV-1; conditions: virions produced with 1 µM KF116
# Experimental: Virions generated in the presence of inhibitor or diluent control (DMSO) was concentrated over 25% sucrose cushion. The virion-associated RT activity assay was performed as described previously, [81] with minor changes. Briefly, equivalent amounts of concentrated virions (based on HIV-1 p24 ELISA) were incubated with RT buffer, containing 50 mM Tris (pH 7.8), 75 mM KCL, 5 mM MgCl2, 2 mM DTT, 0.05% Nonidet P-40 (v/v), 5 µg/ml Poly r(A). Poly d(T)12–18, and 10 µCi of α-^32P dTTP, in 35 µl final volume. The reactions were incubated at room temperature for 3 h. Duplicate 10 µl of the final reactions were blotted onto a 96-well DEAE Filtermat paper (Wallac-Perkin Elmer), dried, washed and processed as described previously.
# The initiation of reverse transcription from total viral RNA was measured using an in vitro HIV-1 reverse transcription reaction, which extends tRNA^Lys3 primer on viral RNA template by +6-nt. The final reaction products were resolved by PAGE and detected by phosphorimager analysis. (Upper panel) A representative image of the 6-nt extension products is shown. (Lower panel) The bar graph represents quantification of bands from the upper panel using ImageJ software. The signal intensity obtained for the non-treated (DMSO) sample was set to 100%. […] Equivalent amounts of concentrated virions, based on HIV-1 p24 ELISA, were analyzed for virion-associated RT activity. […]
# IN in HIV-1 virions = IN in HIV-1 virions (Human immunodeficiency virus type 1 group M subtype B, UniProt P12497); test: Virion-associated IN cross-linking assay (BS3); format: cell-based; conditions: virions from cells treated with 1 µM KF116
# Experimental: (A) DLS analysis of KF116-induced multimerization of recombinant IN. […] The indicated volumes of cross-linked reaction products were resolved by SDS-PAGE and immunoblotted with HIV-1 IN antibody. The bands corresponding to IN “monomer”, “dimer”, and “higher order oligomers” are indicated.
# The IN cross-linking assay was performed as described previously. Briefly, concentrated virions equivalent to 50 ng of HIV-1 p24 were cross-linked with 50 µM bis(sulfosuccinimidyl)suberate (BS^3) cross-linking reagent (Thermo Scientific). Subsequent cross-linked reaction products were quenched and resolved by SDS-PAGE (4–12%, Invitrogen) and immunoblotted.
# HIV-1 virions = test: Virion RNA packaging; format: cell-based; conditions: 1 µM KF116
# Experimental: HEK293T cells (2×10^6 cells/100 mm culture dish in 10 ml of complete medium) were transfected with HIV-1 provirus (pNL4-3) and cultured for 24 h to ensure expression of the provirus as described above. Next, the cells were treated with the indicated inhibitor or diluent control (DMSO) for 1 h. The culture supernatant was replaced with fresh complete medium containing either the inhibitor or DMSO, and cells were then cultured for another 24 h to allow for the production of HIV-1 particles in the presence of the inhibitor or diluent control. The virus containing cell-free supernatant was collected, filtered through a 0.45 µm filter, and concentrated over a 25% sucrose cushion by ultra-centrifugation at 28,000 rpm for 2 h at 4°C in SW41 rotor (Beckman). […] RNA was isolated from the pelleted virions and subsequent cDNA preparations were used for gag quantitative PCR as described above. Relative virion RNA packaging was calculated by normalizing virion Gag RNA copy numbers to Gag p24.
# In parallel, aliquots of cell-free virus-containing supernatant were used to measure the amount of viral particles produced using HIV-1 Gag p24 ELISA. Virion RNA packaging was calculated by normalizing virion Gag RNA copy numbers to Gag p24. […]
# [3] = tested on: HIV-1 virions in HEK293T cells; test: Viral entry assay; format: cell-based; conditions: virions produced with 1 µM KF116
# [4] = tested on: VSV-G pseudotyped HIV-1-Luc; format: cell-based
# HIV-1 = test: Antiviral assay, early stage (inhibitor added to target cells); format: cell-based; conditions: called IC50
structure (smiles),measurement,setting,value
Cc1nc(-c2nc3ccc(Cl)cc3[nH]2)c(C)c(-c2ccccc2)c1C(OC(C)(C)C)C(=O)O (stereo not shown) [KF116],EC50,"[1]; read-out: EC50, WT producer cells",~69 nM
same,EC50,"[1]; read-out: EC50, WT target cells",> 50000 nM
same,effect of complete loss of LEDGF/p75 protein in virus-producer cells on IC50 values,[2],did not alter
same,EC50,"[2]; read-out: EC50, KO producer cells",~75 nM
same,EC50,"[2]; read-out: EC50, KO target cells",~1400 nM
same,effect on virion-associated RT activities,virion-associated RT,no effects
same,IN multimerization in virions after BS3 cross-linking,IN in HIV-1 virions,levels of IN dimers increased and new slower migrating bands were observed
same,effect on viral genomic RNA packaging,HIV-1 virions,did not affect
same,effect on viral entry (incoming genomic RNA in target cells),[3],does not significantly compromise viral entry
same,effect on replication intermediates in target cells of virions produced in presence of inhibitor,[4],sharply reduced levels of early and late RT products
same,effect on replication intermediates when inhibitor added to target cells,[4],"had no effects on reverse transcription, integration, levels of 2-LTRs, or viral expression"
same,EC50,"HIV-1; Human immunodeficiency virus 1, read-out: EC50, Early Stage, target cells, inhibitor added to target cells, untreated virions",50900 ± 4300 nM
same,EC50,"HIV-1; read-out: EC50, Early Stage, target cells, inhibitor added to target cells, untreated virions",~50000 nM
